Results from patent publication US10968183B2, “Small molecule FIEL1 inhibitor in inflammatory and fibrotic lung injury” (UNIVERSITY OF PITTSBURGH—OF THE COMMONWEALTH SYSTEM OF …, priority 2015, dated 2021).

Biological target: T1, FIEL1 (Mus musculus, UniProt Q8CHG5)
T1 construct: endogenous in cells; host or cells: MLE (murine lung epithelial) cells
T1 sequence (Q8CHG5 1-789): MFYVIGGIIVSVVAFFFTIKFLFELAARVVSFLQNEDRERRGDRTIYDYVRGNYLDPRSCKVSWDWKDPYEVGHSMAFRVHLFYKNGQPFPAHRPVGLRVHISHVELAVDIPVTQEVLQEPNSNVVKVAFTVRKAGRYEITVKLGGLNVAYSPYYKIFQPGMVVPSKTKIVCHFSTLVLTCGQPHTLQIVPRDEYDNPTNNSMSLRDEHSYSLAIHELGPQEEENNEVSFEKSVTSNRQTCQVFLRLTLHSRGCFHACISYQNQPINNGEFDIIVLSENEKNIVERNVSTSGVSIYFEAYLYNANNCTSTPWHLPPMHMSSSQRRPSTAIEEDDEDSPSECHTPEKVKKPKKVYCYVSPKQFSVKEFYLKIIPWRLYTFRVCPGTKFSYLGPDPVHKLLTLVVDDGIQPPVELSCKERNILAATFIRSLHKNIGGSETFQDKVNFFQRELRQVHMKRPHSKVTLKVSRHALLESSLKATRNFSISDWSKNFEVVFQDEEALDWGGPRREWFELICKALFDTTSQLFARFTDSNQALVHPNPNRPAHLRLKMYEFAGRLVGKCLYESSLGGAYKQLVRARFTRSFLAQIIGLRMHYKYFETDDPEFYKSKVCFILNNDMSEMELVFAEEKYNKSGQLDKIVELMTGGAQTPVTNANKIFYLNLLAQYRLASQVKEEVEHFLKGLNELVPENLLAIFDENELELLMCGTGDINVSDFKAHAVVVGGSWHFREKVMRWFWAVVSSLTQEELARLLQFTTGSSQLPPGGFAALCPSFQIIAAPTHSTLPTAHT
Assay: PIAS4 protein immunoblot in MLE cells exposed to compounds
Format: cell-based, murine
Conditions: 18 h, FIG. 7D
Protocol: FIG. 7A. […] FIG. 7B. Structures of the BC-1480 backbone and lead compound BC-1485. FIG. 7C. FIEL1 protein was HIS-purified from FIEL1 expression in 293T cells using cobalt beads. Beads were then extensively washed prior to exposure to BC-1480 or BC-1485 at different concentrations (10^−4 to 100 μM). Purified PIAS4 protein was then incubated with drug-bound FIEL1 beads overnight. Beads were washed, and proteins were eluted and resolved on SDS-PAGE. The relative amounts of PIAS4 detected in the pull-downs was normalized to loading and quantified (n=2). FIG. 7D. MLE cells were exposed to BC-1480 or BC-1485 at various concentrations for 18 h. Cells were then collected and immunoblotted. FIGS. 7E-J. C57BL/6J mice were administered with bleomycin (0.05 U) for 7-21 days. Compounds BC-1480 and BC-1485 were given to mice through drinking water with an estimated dose of 5 mg/kg/d. Mice were euthanized, and lungs were lavaged with saline, harvested, and then homogenized. Lavage proteins, CXCL1, and total cell count were measured in FIGS. 7E-G. H. Survival studies of mice that were given bleomycin and compound treatments. Mice were carefully monitored over time; moribund, preterminal animals were immediately euthanized and recorded as deceased. […] Hydroxyproline contents were measured in lungs from 7, 14, and 21d after bleomycin challenge. […]

CC(NC(=O)c1ccc(NS(=O)(=O)c2ccc3[nH]c(=O)[nH]c3c2)cc1)C(=O)N(C)C (stereo not shown) [BC-1485]
activity in increasing PIAS4 protein levels compared to BC-1480: > 100 fold
